Values after ≈ are worked out from the molar mass of the structure shown. Values joined by “and” are separate entries in the source; they are usually repeats but may differ in a detail not shown here. Equal entries are not always repeated. Where two headings read alike, the source gives them in different places.
What was measured:
[1] = test system: E. faecium VRE (ATCC 51559); experiment: MIC susceptibility testing; assay type: cell-based, Enterococcus faecium; settings: for MIC: Enterococcus faecium
How it was run: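 CLSI broth microdilution with two-fold compound dilutions, in triplicate; cells added in medium at 1×10^6 CFUs/mL, DMSO ≤0.5%. Media: MHB for S. aureus, CA-MHB for E. coli and E. faecium, CA-MHB plus 3% laked horse blood for S. pyogenes (5% CO2).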

[2] = biological target: recombinant S. aureus MetRS enzyme (Staphylococcus aureus, UniProt A0A0H2XID2); experiment: Inhibition of SaMetRS, ATP depletion assay; assay type: biochemical
Chain of recombinant S. aureus MetRS enzyme (A0A0H2XID2 2-657): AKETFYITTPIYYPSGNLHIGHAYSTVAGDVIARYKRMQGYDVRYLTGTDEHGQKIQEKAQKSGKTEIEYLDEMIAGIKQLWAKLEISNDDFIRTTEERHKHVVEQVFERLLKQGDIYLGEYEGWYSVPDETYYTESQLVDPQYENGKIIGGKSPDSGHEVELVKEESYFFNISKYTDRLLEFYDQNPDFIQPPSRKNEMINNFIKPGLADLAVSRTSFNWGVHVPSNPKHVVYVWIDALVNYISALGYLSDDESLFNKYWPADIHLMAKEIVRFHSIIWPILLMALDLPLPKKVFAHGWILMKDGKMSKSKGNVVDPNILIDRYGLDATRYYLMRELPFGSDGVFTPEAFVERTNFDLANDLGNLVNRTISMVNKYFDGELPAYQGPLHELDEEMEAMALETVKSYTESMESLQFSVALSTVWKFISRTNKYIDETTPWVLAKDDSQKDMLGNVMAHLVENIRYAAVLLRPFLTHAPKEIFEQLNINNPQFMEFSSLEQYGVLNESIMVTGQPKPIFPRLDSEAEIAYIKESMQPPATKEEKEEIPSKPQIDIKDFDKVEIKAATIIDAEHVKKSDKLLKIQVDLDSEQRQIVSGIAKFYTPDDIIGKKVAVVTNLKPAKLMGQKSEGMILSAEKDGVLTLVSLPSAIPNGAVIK
How it was run: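 IC50 values come from sigmoidal fits of percent inhibition, based on ATP left after 120 min as measured by Kinase-Glo. Substrates were 20 μM L-methionine and 150 nM ATP, added after compounds sat 15 min at room temperature with 25 nM His-tagged SaMetRS, bulk E. coli tRNA, pH 7.9 HEPES buffer and 2% DMSO.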

[3] = Cytotoxicity testing on mammalian cells (AlamarBlue, 48 hours); assay type: cell-based; settings: human
Experimental: Cytotoxicity testing on mammalian cells: Compounds were assayed for cytotoxicity against CRL-8155 (human lymphoblasts) and HepG2 cells (human hepatocellular carcinoma). Cells were exposed to serial dilutions of compounds for 48 hours and toxicity was quantified using AlamarBlue (ThermoFisher Scientific, Waltham, Mass.). Assays were performed in quadruplicate and EC50 values were calculated with non-linear regression methods using software by the Collaborative Drug Database (Burlingame, Calif. www.collaborativedrug.com)

[4] = Liver microsome stability; assay type: in vitro ADME
Experimental: Microsome stability. Liver microsome stability assays were done by contract research laboratory, Wuxi AppTec Co. (Hubei, China). Briefly, compounds at 1 μM concentration were incubated in singlet with human or CD-1 mouse liver microsomes for 6 time points (0, 5, 10, 20, 30, and 60 min). Loss of parent compound was quantified by liquid chromatography/tandem mass spectrometry.

[5] = Protein binding assays, equilibrium dialysis; assay type: in vitro ADME, mouse; settings: 1 μM, equilibrium dialysis 22 hours
Experimental: Protein binding assays: Compound binding to mouse plasma proteins was determined using 96-well equilibrium dialyzer plates (SDIS 9610EN, Nest Group, Inc.). Mouse plasma ([…]-SW-F, BioreclamationIVT, Westbury, N.Y.) containing compound (final concentration 1 μM) was added to a donor chamber as a 150 μL volume. The buffer solution (0.2 mM phosphate buffer, 150 μL) was added to the reciprocal acceptor chamber. Each compound was tested in triplicate. To prepare calibration solution for compound quantifications, blank wells were prepared containing only mouse plasma in a donor well and buffer solution in its acceptor well. The equilibrium dialysis was carried out by rocking the plate for 22 hours in 37° C. Once equilibrium was reached, the plasma and buffer solution from both wells were carefully removed for further analysis with liquid chromatography-tandem mass spectrometry. Plasma solution and internal standard were mixed in the presence of 80% acetonitrile. After centrifuging the solution, the supernatant was transferred to an insert. Similarly, the buffer solution from the acceptor side was prepared containing 40% acetonitrile. Calibration standards for donor and acceptor sides were prepared with compound concentrations of 50 nM, 100 nM, 250 nM, 500 nM, and 1 μM. The compound concentrations from each well were calculated from the calibration curves using Microsoft Excel. The percentage of the test compound bound was determined as follows: % Free=(Concentration buffer chamber/Concentration plasma chamber)×100% % Bound=100%−% Free

S. aureus = experiment: Serum shift assays (MIC with and without 50% human serum); assay type: cell-based, Staphylococcus aureus; settings: for MIC: Staphylococcus aureus
How it was run: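 MICs run in triplicate with and without 50% heat-inactivated pooled human serum in MHB. Threefold compound dilutions (≤0.5% DMSO), inoculum from 1*10^8 CFUs/mL diluted 1:100, incubated ~20 h at 37° C. MIC = lowest concentration giving ≥90% growth inhibition.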

[6] = read-out: E. faecium VRE (ATCC 51559) MIC
[7] = recombinant enzyme, lower limit of detection 0.025 μM, read-out: MetRS S. aureus (enzyme) IC50
[8] = CRL-8155 cells (human lymphoblasts), read-out: Mamm. cells (CRL8155) CC50
[9] = HepG2 cells (human hepatocellular carcinoma), read-out: Mamm. cells (HepG2) CC50
[10] = human, human liver microsomes, read-out: Microsome stability: Human T½
[11] = mouse liver microsomes, CD-1 mouse, read-out: Microsome stability: Mouse T½
[12] = 50% human serum, read-out: Avg MIC ± SEM (+50% serum)
[13] = no serum, read-out: Avg MIC ± SEM (no serum)
[14] = read-out: (B) MetRS (S. aureus) IC50
[15] = E. faecium ATCC 51559, read-out: (I) E. faecium (ATCC 51559) MIC

Row | Structure (SMILES) | MIC [1, 6] [µg/mL] | IC50 [2, 7] [nM] | CC50 at 48 h [3, 8] [µg/mL] | CC50 at 48 h [3, 9] [µg/mL] | half-life at 1 μM [4, 10] [min] | half-life at 1 μM [4, 11] [min] | % binding to mouse plasma [5] [%] | MIC (S. aureus; [12]) [µg/mL] | MIC (S. aureus; [13]) [µg/mL] | Avg MIC ± SEM (+50% serum) (S. aureus; 50% human serum) | IC50 [2, 14] [nM] | (I) E. faecium (ATCC 51559) MIC ([1]; E. faecium ATCC 51559) | MIC [1, 15] [µg/mL]
1 | Fc1ccc2nc(NCCCNCc3cc(Cl)cc(Cl)c3)[nH]c2n1 [Compound 1614, [(3,5-dichlorophenyl)methyl][3-({5-fluoro-3H-imidazo[4,5-b]pyridin-2-yl}amino)propyl]amine] | 0.625 (≈ 1.7 µM) | < 25 | 14.8 (≈ 40.2 µM) | > 18.4 | 9.8 | 6.6 | 96.5 | 42.7 ± 4.1 | 2.47 ± 0.35 |  |  |  | 
2 | Fc1ccc2nc(NCCCN[C@@H]3CCNc4c(Cl)cc(Cl)cc43)[nH]c2n1 [Compound 1717, (4R)-6,8-dichloro—N-[3-({5-fluoro-3H-imidazo[4,5-b]pyridin-2-yl}amino)propyl]-1,2,3,4-tetrahydroquinolin-4-amine, reference compound] | 0.156 (≈ 0.381 µM) | < 25 | 5.8 (≈ 14.2 µM) | 10.4 (≈ 25.4 µM) | 10.3 | 10.3 | 97.6 | ~2 | 0.088 ± 0.02 | 2.066 ± 0.19 µg/mL |  |  | 
3 | CCn1c(Cc2ccc(Cl)cc2Cl)cn(Cc2nc3nc(F)ccc3[nH]2)c1=O [Compound 2062, 4-[(2,4-dichlorophenyl)methyl]-3-ethyl-1-({5-fluoro-1H-imidazo[4,5-b]pyridin-2-yl}methyl)-2,3-dihydro-1H-imidazol-2-one] | 0.313 (≈ 0.745 µM) | < 25 | > 21 | > 21 | 12.6 | 8.4 | 99.4 | 11.8 ± 4.03 | 0.057 ± 0.004 |  | < 25 |  | 
4 | CCn1c(Cc2ccc(OC)cc2Cl)cn(Cc2nc3nc(Cl)ccc3[nH]2)c1=O [Compound 2093, 1-({5-chloro-1H-imidazo[4,5-b]pyridin-2-yl}methyl)-4-[(2-chloro-4-methoxyphenyl)methyl]-3-ethyl-2,3-dihydro-1H-imidazol-2-one] | 0.078 (≈ 0.18 µM) | < 25 | > 21.6 | > 21.6 | 8.3 | 3.2 | 99.9 | 9.59 ± 1.71 | 0.036 ± 0.01 |  | < 25 | 0.0387 µg/mL | 0.0507 (≈ 0.117 µM)
5 | CCn1c(Cc2ccc(OC)cc2Cl)cn(Cc2nc3nc(F)ccc3[nH]2)c1=O [Compound 2114, 4-[(2-chloro-4-methoxyphenyl)methyl]-3-ethyl-1-({5-fluoro-1H-imidazo[4,5-b]pyridin-2-yl}methyl)-2,3-dihydro-1H-imidazol-2-one] | 0.156 (≈ 0.375 µM) | < 25 | > 20.8 | > 20.8 | 15.2 | 7.7 |  |  |  |  | < 25 |  | 
6 | COc1cc(Cl)c(-c2cccc3nc(Cc4nc5nc(Cl)ccc5[nH]4)cn23)cc1OC [Compound 2144, 2-({5-chloro-1H-imidazo[4,5-b]pyridin-2-yl}methyl)-5-(2-chloro-4,5-dimethoxyphenyl)imidazo[1,2-a]pyridine] | 0.0195 (≈ 0.0429 µM) | < 25 | > 11.3 | > 11.3 | 16.4 | 6.5 | 98.4 | ~2 | 0.036 ± 0.01 | 2.06 µg/mL and 2.055 ± 0.51 µg/mL | < 25 | 0.0140, μg/ml | 0.0126 (≈ 0.0277 µM)
7 | CC(=O)NC[C@H]1CN(c2ccc(N3CCOCC3)c(F)c2)C(=O)O1 [LNZ, linezolid] | 1.25 (≈ 3.71 µM) | > 10000 | > 33.7 | > 33.7 |  |  | 39.5 | 1.89 ± 0.1 | 1.57 ± 0.1 |  |  |  | 

— patent US11584744B2 (UNIVERSITY OF WASHINGTON, priority 2017, dated 2023)
